Several values for one entry are separate records, joined by “and”; a condition that tells them apart may be missing. Identical values can stand only once. Like-named read-outs stand apart in the source and are kept apart here.
How the values were obtained:
physchem [1] = conditions: pH 7.4
physchem [2] = conditions: 25 °C, kinetic from dmso stock
in vitro [3] = conditions: human, microsomes, pH 7.4
in vitro [4] = conditions: CD1, mouse, microsomes, pH 7.4
[5] = Mouse liver microsomal stability assay; conditions: CD1, mouse, pH 7.4
[6] = PAMPA
[7] = female, BALB/c, mouse, 1 h, 2 μM, pH 7.4
PL^pro = PL^pro (Severe acute respiratory syndrome coronavirus 2, UniProt P0DTD1); conditions: 20 μM compound, 5 μM enzyme, average of triplicates with SD
in vitro [8] = conditions: PAMPA
[9] = Human liver microsomal stability assay
[10] = human, microsomes
Plasma stability = conditions: for half-life at 2 μM: female, BALB/c, mouse, plasma, pH 7.4
SARS-CoV-2 PL^pro = SARS-CoV-2 PL^pro (Severe acute respiratory syndrome coronavirus 2, UniProt P0DTD1); type: biochemical
SARS-CoV-2 = conditions: Vero CCL-81 cells
[11] = Chromatographic distribution coefficient (eLogD7.4); conditions: pH 7.4
[12] = Parallel artificial membrane permeability assay (PAMPA)
Kinetic solubility = conditions: 25 °C, kinetic from dmso stock
[13] = human, liver microsomes, pH 7.4

Row | SMILES | chromatographic logD (physchem [1]) | solubility kinetic at 24 h (physchem [2]; pH 2, aqueous buffer) [µg/mL] | solubility kinetic at 24 h (physchem [2]; pH 7.4, aqueous buffer) [µg/mL] | microsomal CLint at 0.5 μM (in vitro [3]) [µL/min/mg] | microsomal CLint at 0.5 μM (in vitro [4]) [µL/min/mg] | half-life at 0.5 μM ([5]; liver microsomes) [min] | permeability (in words) [6] | plasma stability remaining 60 min [7] [%] | ΔT m (PL^pro) | Papp at 5 h, 10 μM (in vitro [8]) [×10⁻⁶ cm/s] | half-life at 0.5 μM [9, 13] [min] | half-life at 2 μM (Plasma stability) [h] | inhibition of SARS-CoV-2 PL^pro (SARS-CoV-2 PL^pro) [%] | further results
1 | COc1ccc(CNC(=O)C2CCN([C@H](C)c3ccccc3)CC2)cc1 [Compound 3] | 3 | > 22.1 | > 22.3 | 12 | 94 | 29.5 | highly permeable | 83.80 | 0.06 °C and 0.06 ± 0.05 °C | 2.35 | 231 |  |  | metabolic stability (in words) [10]: improved stability
2 | COc1ccc(CC(=O)NC2CCN([C@H](C)c3cccc4ccccc34)CC2)cc1 [Compound 6] | 4.28 | > 24.9 | > 12.7 | 88.4 | 171 | 16.2 | highly permeable | 90.29 | 4.8 °C and 4.8 ± 0.1 °C | 1.74 | 31.4 | 38.5 |  | 
3 | N=C(N)NCCCCC(=O)Nc1cc(C(F)(F)F)cc(NC(=O)c2cc(C(=O)Nc3cc(C(F)(F)F)cc(NC(=O)CCCCNC(=N)N)c3O[C@@H]3CCNC3)ncn2)c1O[C@@H]1CCNC1 [Brilacidin, reference compound] |  |  |  |  |  |  |  |  |  |  |  |  | ≥ 80 | decrease of viral replication (viral load by RT-PCR) (SARS-CoV-2; 1 μM): over 50%
4 | COc1ccc(CNC(=O)C2CCN(C(C)c3cccc4ccccc34)CC2)cc1 (stereo not shown) [MMV1634397] |  |  |  |  |  |  |  |  | 6.26 °C and 6.3 ± 0.3 °C |  |  | 7.22 | ≥ 80 | half-life at 0.5 μM ([5]; microsomes): 21.5 min; microsomal CLint at 0.5 μM ([5]; microsomes): 129 µL/min/mg; chromatographic logD [11]: 4.17; Papp at 5 h, 10 μM [12]: 1.07 ×10⁻⁶ cm/s; permeability (in words) [12]: medium to low permeable; decrease of viral replication (viral load by RT-PCR) (SARS-CoV-2; 10 μM): over 50%; plasma stability remaining 60 min (Plasma stability; mouse plasma, 60 min): 54.08%; HLM CLint(mic) ([9]; human liver microsomes): 80.40 µL/min/mg; HLM T 1/2 ([9]; human liver microsomes): 34.48 min; microsomal CLint at 0.5 μM ([9]; human, microsomes, pH 7.4, HLM CLint(mic), human liver microsomes): 80 µL/min/mg; half-life at 0.5 μM ([9]; human, microsomes, pH 7.4, HLM T 1/2, human liver microsomes): 35 min; metabolic stability (in words) ([9]; liver microsomes): moderately stable; solubility kinetic at 24 h (Kinetic solubility; pH 2, aqueous buffer): > 24.6 µg/mL; solubility kinetic at 24 h (Kinetic solubility; pH 7.4, aqueous buffer): > 21.6 µg/mL

Source: PMC12461331, “Screening of Medicines for Malaria Venture Open Boxes Identifies Potent SARS-CoV‑2 Papain-like Protease (PL^pro) Inhibitors” (ACS Omega, 2025)
